From patent publication EP4813463A2, “TYK2 INHIBITORS AND COMPOSITIONS AND METHODS THEREOF” (Lynk Pharmaceuticals Co. Ltd., priority 2023, dated 2024)
Where two headings read alike, the source gives them in different places.

Assays:
JAK1-JH2 domain = molecular target: T1, JAK1-JH2 domain (Homo sapiens, UniProt P23458); experiment: Binding activity test for JH2 domain of JAK1 (Tb-antibody/tracer FRET)
T1 construct: JAK1-JH2 domain or TYK2-JH2 domain enzyme in assay buffer
Description: Binding Activity test for JH2 domain of JAK1 and TYK2 […] Add 8μL/well in echo source plate, echo will add 75nL/well with 3-fold serial dilution for 11 points in assay plate. 75nL DMSO for high control and low control. […] For low control, add 5μL/well assay buffer. And then spin down at 1000rpm and centrifuge for 30 seconds. After enzyme system prepared, add 5μL of Tb-antibody solution into each well of assay plate. Spin down at 1000 rpm and centrifuge for 30sec. After Tb-antibody added, also add 5μL of tracer into the assay plate. Spin down at 1000rpm and centrifuge for 30sec. Incubate for […] at 25°C firstly and then continue to incubate the plate at 4°C overnight. Read by envision in FRET mode. The Luminescence value was recorded by a multi-label reader Envision (PerkinElmer). […] Table 2. IC50 on JH2 domain activity (nM)

TYK2-JH2 domain = molecular target: T2, TYK2-JH2 domain (Homo sapiens, UniProt P29597); experiment: Binding activity test for JH2 domain of TYK2 (Tb-antibody/tracer FRET)
T2 construct: JAK1-JH2 domain or TYK2-JH2 domain enzyme in assay buffer
How it was run: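 IC50 values (nM) come from TR-FRET readings taken after a 25°C incubation followed by overnight at 4°C. Each well held JH2 domain protein, Tb-antibody, tracer and test compound titrated in 11 threefold steps, with DMSO high and low controls.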

[1] = test system: Ba/F3-FL-TYK2-P760L cells; experiment: Anti-proliferative assay in engineered Ba/F3 cells (Cell-Titer Glo, 72 h); format: cell-based; conditions: Mus musculus, concentration that causes 50% growth inhibition, read-out: Baf3-FL-T2P760L
How it was run: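 IC50 from luminescent ATP viability after 72 h compound exposure (37 °C, 5% CO2), % inhibition normalised to DMSO-treated cells minus medium blank. IL-3-free Ba/F3-FL-TYK2-P760L (Tel-JAK fusion) cells in 10% FBS RPMI-1640 received 9 three-fold doses, top 20 µM, 0.1% DMSO.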

[2] = ratio of JAK1 JH2 to TYK2 JH2 binding IC50
[3] = JH2 domain enzyme; 60 min at 25°C, then 4°C overnight; read-out: JAK1 JH2 Binding IC50
[4] = JH2 domain enzyme; 60 min at 25°C, then 4°C overnight; read-out: TYK2 JH2 Binding IC50
[5] = BaF3, 72 h, 72 h compound treatment

T2 sequence (P29597 589-875 limits assumed): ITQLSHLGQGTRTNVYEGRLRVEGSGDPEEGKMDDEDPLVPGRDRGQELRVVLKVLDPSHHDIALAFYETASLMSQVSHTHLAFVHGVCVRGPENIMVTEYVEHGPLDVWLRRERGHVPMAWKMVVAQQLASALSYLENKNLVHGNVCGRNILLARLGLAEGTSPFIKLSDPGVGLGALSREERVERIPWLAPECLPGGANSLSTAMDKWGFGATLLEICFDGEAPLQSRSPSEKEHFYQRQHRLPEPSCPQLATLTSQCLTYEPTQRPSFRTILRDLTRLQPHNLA
T1 sequence (P23458 583-855 limits assumed): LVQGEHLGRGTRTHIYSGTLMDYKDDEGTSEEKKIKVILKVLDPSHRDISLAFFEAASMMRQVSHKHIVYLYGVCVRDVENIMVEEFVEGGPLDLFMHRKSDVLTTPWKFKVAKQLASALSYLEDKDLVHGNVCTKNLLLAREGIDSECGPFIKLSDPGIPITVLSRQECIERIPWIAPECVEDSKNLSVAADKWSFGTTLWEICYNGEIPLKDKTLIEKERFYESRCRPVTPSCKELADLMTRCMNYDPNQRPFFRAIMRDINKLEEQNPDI

Compound | IC50 (JAK1-JH2 domain; read-out: JAK1 JH2 Binding IC50; JH2 domain enzyme; 60 min at 25°C, then 4°C overnight) [nM] | JAK1/TYK2 selectivity (TYK2-JH2 domain; [2]) | IC50 (TYK2-JH2 domain; read-out: TYK2 JH2 Binding IC50; JH2 domain enzyme; 60 min at 25°C, then 4°C overnight) [nM] | IC50 ([1]; BaF3, 72 h compound treatment) [nM] | IC50 (JAK1-JH2 domain; [3]) [nM] | IC50 (TYK2-JH2 domain; [4]) [nM] | IC50 [1, 5] [nM]
[2H]C([2H])([2H])NC(=O)c1cnc(NC(=O)[C@@H]2C[C@@H]2F)cc1Nc1cnn2cnc(C(O)C(F)(F)F)c(OC)c12 (some centres unmarked) [Example 39, 6-((18,25)-2-fluorocyclopropane-1-carboxamido)-4-((4-methoxy-5-(2,2,2-trifluoro-1-hydroxyethyl)pyrazolo[1,5-c]pyrimidin-3-yl)amino)-N-(methyl-d3)nicotinamide] | > 298 | >532.1 | 0.561 | 350 |  |  | 
[2H]C([2H])([2H])NC(=O)c1cnc(NC(=O)C2CC2)cc1Nc1cnn2ccccc12 [Example 40, 6-(Cyclopropanecarboxamido)-N-(methyl-d3)-4-(pyrazolo[1,5-a]pyridin-3-ylamino)nicotinamide] |  | >1.6 |  |  | > 298 | 186 | > 5000
[2H]C([2H])([2H])NC(=O)c1cnc(NC(=O)C2CC2)cc1Nc1cnn2ccc(C(O)C(F)(F)F)cc12 (centres unmarked) [Example 41, 6-(Cyclopropanecarboxamido)-N-(methyl-d3)-4-((5-(2,2,2-trifluoro-1-hydroxyethyl)pyrazolo[1,5-a]pyridin-3-yl)amino)nicotinamide] |  | >6.37 |  |  | > 298 | 46.8 | > 5000
[2H]C([2H])([2H])NC(=O)c1cnc(NC(=O)C2CC2)cc1Nc1cnn2cccc(OC)c12 [Example 44, 6-(Cyclopropanecarboxamido)-4-((4-methoxypyrazolo[1,5-a]pyridin-3-yl)amino)-N-(methyl-d3)nicotinamide] |  | 21.5 |  |  | 60.2 | 2.8 | 356
COC(=O)c1cnc(NC(=O)C2CC2)cc1Nc1nn(C)c2ccc(C(OC)C(F)(F)F)c(OC)c12 (centres unmarked) [Example 45, Methyl 6-(cyclopropanecarboxamido)-4-((4-methoxy-1-methyl-5-(2,2,2-trifluoro-1-methoxyethyl)-1H-indazol-3-yl)amino)nicotinate] |  | 307.51 |  |  | 64.3 | 0.209 | 8.61
COC(=O)c1cnc(NC(=O)C2CC2)cc1Nc1nn(C)c2ccc([C@@H](OC)C(F)(F)F)c(OC)c12 [Example 45A, Methyl (R)-6-(cyclopropanecarboxamido)-4-((4-methoxy-1-methyl-5-(2,2,2-trifluoro-1-methoxyethyl)-1H-indazol-3-yl)amino)nicotinate] |  | >361.38 |  |  | > 298 | 0.826 | 110
[2H]C([2H])([2H])NC(=O)c1cnc(NC(=O)C2CC2)cc1Nc1nn(C)c2ccc(C(OC)C(F)(F)F)c(OC)c12 (centres unmarked) [Example 46, 6-(Cyclopropanecarboxamido)-4-((4-methoxy-1-methyl-5-(2,2,2-trifluoro-1-methoxyethyl)-1H-indazol-3-yl)amino)-N-(methyl-d3)nicotinamide] |  | 60.31 |  |  | 6.81 | 0.113 | 0.618
[2H]C([2H])([2H])O[C@@H](c1ccn2ncc(Nc3cc(NC(=O)C4CC4)ncc3C(=O)OC)c2c1OC)C(F)(F)F [Example 47, Methyl (S)-6-(cyclopropanecarboxamido)-4-((4-methoxy-5-(2,2,2-trifluoro-1-(methoxy-d3)ethyl)pyrazolo[1,5-a]pyridin-3-yl)amino)nicotinate] |  | 210.20 |  |  | 46.5 | 0.221 | 70.6
COC(=O)c1cnc(NC(=O)C2CC2)cc1Nc1nn(C)c2ccc([C@@H](O)C(F)(F)F)c(OC)c12 [Example 48B, Methyl (R)-6-(cyclopropanecarboxamido)-4-((4-methoxy-1-methyl-5-(2,2,2-trifluoro-1-hydroxyethyl)-1H-indazol-3-yl)amino)nicotinate] |  | 51.13 |  |  | 85.9 | 1.68 | 162
[2H]C([2H])([2H])O[C@H](c1ccc2c(c(Nc3cc(NC(=O)C4CC4)ncc3C(=O)OC)nn2C)c1OC)C(F)(F)F [Example 50A, Methyl (R)-6-(cyclopropanecarboxamido)-4-((4-methoxy-1-methyl-5-(2,2,2-trifluoro-1-(methoxy-d3)ethyl)-1H-indazol-3-yl)amino)nicotinate] |  | >287.30 |  |  | > 298 | 1.04 | 131
[2H]C([2H])([2H])NC(=O)c1nnc(NC(=O)C2CC2)cc1Nc1nn(C)c2ccc([C@@H](OC)C(F)(F)F)c(OC)c12 [Example 51A, (R)-6-(cyclopropanecarboxamido)-4-((4-methoxy-1-methyl-5-(2,2,2-trifluoro-1-methoxyethyl)-1H-indazol-3-yl)amino)-N-(methyl-d3)pyridazine-3-carboxamide] |  | 40.84 |  |  | 6.29 | 0.154 | 12.3
[2H]C([2H])([2H])n1nc(Nc2cc(NC(=O)C3CC3)ncc2C(=O)OC)c2c(OC)c([C@H](OC)C(F)(F)F)ccc21 [Example 52A, Methyl (S)-6-(cyclopropanecarboxamido)-4-((4-methoxy-1-(methyl-d3)-5-(2,2,2-trifluoro-1-methoxyethyl)-1H-indazol-3-yl)amino)nicotinate] |  | 501.71 |  |  | 41.1 | 0.082 | 3.56
[2H]C([2H])([2H])n1nc(Nc2cc(NC(=O)C3CC3)ncc2C(=O)OC)c2c(OC)c([C@@H](OC)C(F)(F)F)ccc21 [Example 52B, Methyl (R)-6-(cyclopropanecarboxamido)-4-((4-methoxy-1-(methyl-d3)-5-(2,2,2-trifluoro-1-methoxyethyl)-1H-indazol-3-yl)amino)nicotinate] |  | >484.60 |  |  | > 298 | 0.616 | 119
[2H]C([2H])([2H])NC(=O)c1cnc(NC(=O)C2CC2)cc1Nc1nn(C)c2ccc([C@@H](OC([2H])([2H])[2H])C(F)(F)F)c(OC)c12 [Example 55B, (R)-6-(cyclopropanecarboxamido)-4-((4-methoxy-1-methyl-5-(2,2,2-trifluoro-1-(methoxy-d3)ethyl)-1H-indazol-3-yl)amino)-N-(methyl-d3)nicotinamide] |  | 153.54 |  |  | 12.3 | 0.08 | 16.2
COC(=O)c1cnc(NC(=O)C2CC2)nc1Nc1cccc(-c2ncn(C)n2)c1OC [Example 56, Methyl 2-(cyclopropanecarboxamido)-4-((2-methoxy-3-(1-methyl-1H-1,2,4-triazol-3-yl)phenyl)amino)pyrimidine-5-carboxylate] |  | 54.42 |  |  | 52.6 | 0.967 | 148
CCOC(=O)c1cnc(NC(=O)C2CC2)nc1Nc1cccc(-c2ncn(C)n2)c1OC [Example 57, Ethyl 2-(cyclopropanecarboxamido)-4-((2-methoxy-3-(1-methyl-1H-1,2,4-triazol-3-yl)phenyl)amino)pyrimidine-5-carboxylate] |  | >40.75 |  |  | > 298 | 7.33 | 719
COC(=O)c1cnc(NC(=O)C2CC2)cc1Nc1cccc(-c2ncn(C)n2)c1OC [Example 58, Methyl 6-(cyclopropanecarboxamido)-4-((2-methoxy-3-(1-methyl-1H-1,2,4-triazol-3-yl)phenyl)amino)nicotinate] |  | 39.30 |  |  | 11.9 | 0.304 | 32.4
[2H]C([2H])([2H])OC(=O)c1cnc(NC(=O)C2CC2)cc1Nc1ncn2ncc(CC)c2c1OC [Example 59, Methyl-d3 6-(cyclopropanecarboxamido)-4-((3-ethyl-4-methoxypyrazolo[1,5-c]pyrimidin-5-yl)amino)nicotinate] |  | 52.94 |  |  | 44.1 | 0.834 | 208
COC(=O)c1cnc(NC(=O)C2CC2)cc1Nc1cccc(-c2ccn(C)n2)c1OC [Example 60, Methyl 6-(cyclopropanecarboxamido)-4-((2-methoxy-3-(1-methyl-1H-pyrazol-3-yl)phenyl)amino)nicotinate] |  | 32.87 |  |  | 17.9 | 0.546 | 94.4
COC(=O)c1cnc(NC(=O)C2CC2)cc1Nc1nccc(-c2cnn(C)n2)c1OC [Example 62, Methyl 6-(cyclopropanecarboxamido)-4-((3-methoxy-4-(2-methyl-2H-1,2,3-triazol-4-yl)pyridin-2-yl)amino)nicotinate] |  | 156.97 |  |  | 154 | 0.98 | > 1000
